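Growth conditions: 96-well plates. Treatment: test compound, 48 hours, 5 concentrations. Analysis: linear interpolation between bracketing concentrations; unreached endpoints set to highest concentration. Here, GI50 denotes the concentration required for 50% inhibition of growth.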 Active and inactive are the calls of the source. Cut-off read from the data, not from the text of the source: active = GI50 up to about 1.1 µM and inactive = higher.
Legend:
Test in all cases: DTP human tumour cell line panel, 48 h
SK-MEL-28 = system: SK-MEL-28
HOP-92 = system: HOP-92
OVCAR-3 = system: OVCAR-3
DLD-1 = system: DLD-1
SW-620 = system: SW-620
HT-29 = system: HT-29
SK-MEL-5 = system: SK-MEL-5
OVCAR-8 = system: OVCAR-8
RXF 393 = system: RXF 393
KM12 = system: KM12
SN12C = system: SN12C
SNB-19 = system: SNB-19
EKVX = system: EKVX
UACC-62 = system: UACC-62
ACHN = system: ACHN
HL-60 = system: HL-60
K562 = system: K562
IGROV-1 = system: IGROV-1
RPMI-8226 = system: RPMI-8226
UO-31 = system: UO-31
OVCAR-5 = system: OVCAR-5
SF-539 = system: SF-539
M19-MEL = system: M19-MEL
CAKI-1 = system: CAKI-1
RXF 631 = system: RXF 631
TK-10 = system: TK-10
HCT-116 = system: HCT-116
SR = system: SR
HOP-62 = system: HOP-62
A498 = system: A498
A549 = system: A549
NCI-H23 = system: NCI-H23
COLO 205 = system: COLO 205
SK-MEL-2 = system: SK-MEL-2
OVCAR-4 = system: OVCAR-4
NCI-H460 = system: NCI-H460
UACC-257 = system: UACC-257
M14 = system: M14
SF-295 = system: SF-295
Malme-3M = system: Malme-3M
SK-OV-3 = system: SK-OV-3
DMS-114 = system: DMS-114
HCC 2998 = system: HCC 2998
CCRF-CEM = system: CCRF-CEM
NCI-H522 = system: NCI-H522
LOX IMVI = system: LOX IMVI
MOLT-4 = system: MOLT-4
KM-20L2 = system: KM-20L2
786-0 = system: 786-0
SF-268 = system: SF-268
HOP-18 = system: HOP-18
NCI-H226 = system: NCI-H226
MDA-MB-435 = system: MDA-MB-435
SNB-78 = system: SNB-78
LXFL 529 = system: LXFL 529
PC-3 = system: PC-3
MDA-N = system: MDA-N
MDA-MB-231 = system: MDA-MB-231
BT-549 = system: BT-549
DU-145 = system: DU-145
DMS-273 = system: DMS-273
XF498 = system: XF498
T47D = system: T47D
U-251 = system: U-251
SNB-75 = system: SNB-75
HCT-15 = system: HCT-15
MCF7 = system: MCF7
NCI/ADR-RES = system: NCI/ADR-RES
Hs-578T = system: Hs-578T

## COc1ccc(Cc2cc3c(cc2OCC(=O)O)OCO3)cc1
SK-MEL-28
  GI50: > 100 µM (inactive)
HOP-92
  GI50: > 100 µM (inactive)
OVCAR-3
  GI50: > 100 µM (inactive)
DLD-1
  GI50: > 100 µM (inactive)
SW-620
  GI50: > 100 µM (inactive)
HT-29
  GI50: > 100 µM (inactive)
SK-MEL-5
  GI50: > 100 µM (inactive)
OVCAR-8
  GI50: > 100 µM (inactive)
RXF 393
  GI50: > 100 µM (inactive)
KM12
  GI50: > 100 µM (inactive)
SN12C
  GI50: > 100 µM (inactive)
SNB-19
  GI50: > 100 µM (inactive)
EKVX
  GI50: > 100 µM (inactive)
UACC-62
  GI50: > 100 µM (inactive)
ACHN
  GI50: > 100 µM (inactive)
HL-60
  GI50: > 100 µM (inactive)
K562
  GI50: > 100 µM (inactive)
IGROV-1
  GI50: > 100 µM (inactive)
RPMI-8226
  GI50: > 100 µM (inactive)
UO-31
  GI50: > 100 µM (inactive)
OVCAR-5
  GI50: > 100 µM (inactive)
SF-539
  GI50: > 100 µM (inactive)
M19-MEL
  GI50: > 100 µM (inactive)
CAKI-1
  GI50: > 100 µM (inactive)
RXF 631
  GI50: > 100 µM (inactive)
TK-10
  GI50: > 100 µM (inactive)
HCT-116
  GI50: > 100 µM (inactive)
SR
  GI50: > 100 µM (inactive)
HOP-62
  GI50: > 100 µM (inactive)
A498
  GI50: > 100 µM (inactive)
A549
  GI50: > 100 µM (inactive)
NCI-H23
  GI50: > 100 µM (inactive)
COLO 205
  GI50: > 100 µM (inactive)
SK-MEL-2
  GI50: > 100 µM (inactive)
OVCAR-4
  GI50: > 100 µM (inactive)
NCI-H460
  GI50: > 100 µM (inactive)
UACC-257
  GI50: > 100 µM (inactive)
M14
  GI50: > 100 µM (inactive)
SF-295
  GI50: > 100 µM (inactive)
Malme-3M
  GI50: > 100 µM (inactive)
SK-OV-3
  GI50: > 100 µM (inactive)
DMS-114
  GI50: > 100 µM (inactive)
HCC 2998
  GI50: > 100 µM (inactive)
CCRF-CEM
  GI50: > 100 µM (inactive)
NCI-H522
  GI50: > 100 µM (inactive)
LOX IMVI
  GI50: > 100 µM (inactive)
MOLT-4
  GI50: > 100 µM (inactive)
KM-20L2
  GI50: > 100 µM (inactive)
786-0
  GI50: > 100 µM (inactive)
SF-268
  GI50: > 100 µM (inactive)

## COc1cccc2c1C(=O)c1c(O)c3c(c(O)c1C2=O)C[C@@](O)(C(C)=O)C[C@@H]3OC1OC(C)C(O)C(N)C1Br (stereo partly drawn)
SK-MEL-28
  GI50: 0.318 µM (active)
HOP-92
  GI50: 0.0486 µM (active)
OVCAR-3
  GI50: 0.136 µM (active)
DLD-1
  GI50: 0.0259 µM (active)
SW-620
  GI50: 0.0177 µM (active)
HOP-18
  GI50: 0.0404 µM (active)
HT-29
  GI50: 0.152 µM (active)
NCI-H226
  GI50: 0.0165 µM (active)
SK-MEL-5
  GI50: 0.0689 µM (active)
OVCAR-8
  GI50: 0.0557 µM (active)
MDA-MB-435
  GI50: 0.22 µM (active)
RXF 393
  GI50: 0.213 µM (active)
SNB-78
  GI50: 0.105 µM (active)
LXFL 529
  GI50: 0.0601 µM (active)
KM12
  GI50: 0.14 µM (active)
SN12C
  GI50: 0.0281 µM (active)
SNB-19
  GI50: 0.0412 µM (active)
EKVX
  GI50: 0.805 µM (active)
UACC-62
  GI50: 0.105 µM (active)
ACHN
  GI50: 0.0213 µM (active)
HL-60
  GI50: 0.00971 µM (active)
K562
  GI50: 0.0495 µM (active)
IGROV-1
  GI50: 0.266 µM (active)
RPMI-8226
  GI50: 0.0156 µM (active)
UO-31
  GI50: 0.0953 µM (active)
OVCAR-5
  GI50: 0.28 µM (active)
SF-539
  GI50: 0.0583 µM (active)
M19-MEL
  GI50: 0.116 µM (active)
PC-3
  GI50: 0.138 µM (active)
MDA-N
  GI50: 0.208 µM (active)
MDA-MB-231
  GI50: 0.233 µM (active)
CAKI-1
  GI50: 0.0139 µM (active)
TK-10
  GI50: 0.158 µM (active)
HCT-116
  GI50: 0.00792 µM (active)
BT-549
  GI50: 0.269 µM (active)
SR
  GI50: 0.00497 µM (active)
HOP-62
  GI50: 0.0147 µM (active)
A498
  GI50: 0.133 µM (active)
DU-145
  GI50: 0.0475 µM (active)
A549
  GI50: 0.0202 µM (active)
DMS-273
  GI50: 0.0078 µM (active)
NCI-H23
  GI50: 0.027 µM (active)
COLO 205
  GI50: 0.418 µM (active)
SK-MEL-2
  GI50: 0.267 µM (active)
OVCAR-4
  GI50: 0.185 µM (active)
NCI-H460
  GI50: 0.001 µM (active)
UACC-257
  GI50: 0.155 µM (active)
M14
  GI50: 0.0681 µM (active)
SF-295
  GI50: 0.0442 µM (active)
Malme-3M
  GI50: 0.0769 µM (active)
SK-OV-3
  GI50: 0.045 µM (active)
DMS-114
  GI50: 0.0316 µM (active)
HCC 2998
  GI50: 0.111 µM (active)
XF498
  GI50: 129 nM (active)
CCRF-CEM
  GI50: 0.00414 µM (active)
T47D
  GI50: 0.0585 µM (active)
U-251
  GI50: 0.0295 µM (active)
NCI-H522
  GI50: 0.0652 µM (active)
SNB-75
  GI50: 0.0029 µM (active)
LOX IMVI
  GI50: 0.0208 µM (active)
MOLT-4
  GI50: 0.001 µM (active)
KM-20L2
  GI50: 0.232 µM (active)
HCT-15
  GI50: 0.132 µM
786-0
  GI50: 0.0404 µM (active)
MCF7
  GI50: 0.00385 µM (active)
SF-268
  GI50: 0.101 µM (active)

## O=C1c2ccccc2C(=O)c2c1ccc1c3ccccc3n(-c3ccccc3)c21
SK-MEL-28
  GI50: 17.9 µM (inactive)
HOP-92
  GI50: 4.84 µM (inactive)
OVCAR-3
  GI50: 19.5 µM (inactive)
DLD-1
  GI50: 17.1 µM (inactive)
SW-620
  GI50: 15.8 µM (inactive)
HOP-18
  GI50: 14.5 µM (inactive)
HT-29
  GI50: 16.7 µM (inactive)
NCI-H226
  GI50: 26.1 µM (inactive)
SK-MEL-5
  GI50: 16.1 µM (inactive)
OVCAR-8
  GI50: 27.2 µM (inactive)
MDA-MB-435
  GI50: 9.31 µM (inactive)
RXF 393
  GI50: 14.1 µM (inactive)
SNB-78
  GI50: 21.1 µM (inactive)
LXFL 529
  GI50: 16.8 µM (inactive)
KM12
  GI50: 29.2 µM (inactive)
SN12C
  GI50: 17.8 µM (inactive)
SNB-19
  GI50: 75.5 µM (inactive)
EKVX
  GI50: 41.3 µM (inactive)
UACC-62
  GI50: 14.7 µM (inactive)
ACHN
  GI50: 17.3 µM (inactive)
HL-60
  GI50: 2.03 µM (inactive)
K562
  GI50: 6.61 µM (inactive)
IGROV-1
  GI50: 25.4 µM (inactive)
RPMI-8226
  GI50: 7.24 µM (inactive)
UO-31
  GI50: 21.3 µM (inactive)
OVCAR-5
  GI50: 27 µM (inactive)
SF-539
  GI50: 19.1 µM (inactive)
M19-MEL
  GI50: 18.8 µM (inactive)
PC-3
  GI50: 28.1 µM (inactive)
MDA-N
  GI50: 25 µM (inactive)
MDA-MB-231
  GI50: 22.4 µM (inactive)
CAKI-1
  GI50: 18.2 µM (inactive)
RXF 631
  GI50: 7.94 µM (inactive)
TK-10
  GI50: 40.8 µM (inactive)
NCI/ADR-RES
  GI50: 39.7 µM (inactive)
Hs-578T
  GI50: 15 µM (inactive)
HCT-116
  GI50: 19.7 µM (inactive)
BT-549
  GI50: 25.7 µM (inactive)
SR
  GI50: 5.89 µM (inactive)
HOP-62
  GI50: 49.5 µM (inactive)
A498
  GI50: 46 µM (inactive)
DU-145
  GI50: 18.7 µM (inactive)
A549
  GI50: 27.7 µM (inactive)
DMS-273
  GI50: 18.6 µM (inactive)
NCI-H23
  GI50: 15.4 µM (inactive)
COLO 205
  GI50: 16.9 µM (inactive)
SK-MEL-2
  GI50: 25.7 µM (inactive)
OVCAR-4
  GI50: 18.8 µM (inactive)
NCI-H460
  GI50: 27.2 µM (inactive)
UACC-257
  GI50: 20.7 µM (inactive)
M14
  GI50: 12.4 µM (inactive)
SF-295
  GI50: 18.2 µM (inactive)
Malme-3M
  GI50: 28.7 µM (inactive)
SK-OV-3
  GI50: > 100 µM (inactive)
HCC 2998
  GI50: 46.6 µM (inactive)
CCRF-CEM
  GI50: 2.85 µM (inactive)
T47D
  GI50: 14.6 µM (inactive)
U-251
  GI50: 32.7 µM (inactive)
NCI-H522
  GI50: 15.4 µM (inactive)
SNB-75
  GI50: 18.3 µM (inactive)
LOX IMVI
  GI50: 14.5 µM (inactive)
MOLT-4
  GI50: 2.3 µM (inactive)
KM-20L2
  GI50: 21.5 µM (inactive)
HCT-15
  GI50: 16.1 µM
786-0
  GI50: 21.3 µM (inactive)
MCF7
  GI50: 16 µM (inactive)
SF-268
  GI50: 23 µM (inactive)
